We go through five compounds from patent US6403626B1, “Benzimidazole derivatives” (Synaptic Pharmaceutical Corporation, priority 1994, dated 2002).

Like-named read-outs stand apart in the source and are kept apart here.

For test [1], the target named is T1, α2C Human Adrenergic Receptor (Homo sapiens, UniProt P18825).
T1 sequence (P18825 1-462): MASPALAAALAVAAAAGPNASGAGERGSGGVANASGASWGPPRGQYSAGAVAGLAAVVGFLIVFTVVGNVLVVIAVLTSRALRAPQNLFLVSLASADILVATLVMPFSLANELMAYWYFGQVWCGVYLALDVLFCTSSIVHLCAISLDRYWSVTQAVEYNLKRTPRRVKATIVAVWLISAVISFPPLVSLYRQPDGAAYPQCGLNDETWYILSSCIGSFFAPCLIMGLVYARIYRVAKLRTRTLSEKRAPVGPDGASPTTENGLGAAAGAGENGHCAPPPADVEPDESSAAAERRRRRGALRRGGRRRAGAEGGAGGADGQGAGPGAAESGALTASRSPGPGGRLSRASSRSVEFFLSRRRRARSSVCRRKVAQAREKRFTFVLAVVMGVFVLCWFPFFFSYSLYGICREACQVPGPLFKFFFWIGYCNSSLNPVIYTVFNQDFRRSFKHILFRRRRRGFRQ
As to the kind of experiment: Equilibrium competition binding, [3H] rauwolscine, membranes of transfected LM(tk-) cells.

In test [2] the target is T2, α2B Human Adrenergic Receptor (Homo sapiens, UniProt P18089).
T2 construct: expressed in transfected cells; host or cells: Y-1 cells
T2 sequence (P18089 1-450): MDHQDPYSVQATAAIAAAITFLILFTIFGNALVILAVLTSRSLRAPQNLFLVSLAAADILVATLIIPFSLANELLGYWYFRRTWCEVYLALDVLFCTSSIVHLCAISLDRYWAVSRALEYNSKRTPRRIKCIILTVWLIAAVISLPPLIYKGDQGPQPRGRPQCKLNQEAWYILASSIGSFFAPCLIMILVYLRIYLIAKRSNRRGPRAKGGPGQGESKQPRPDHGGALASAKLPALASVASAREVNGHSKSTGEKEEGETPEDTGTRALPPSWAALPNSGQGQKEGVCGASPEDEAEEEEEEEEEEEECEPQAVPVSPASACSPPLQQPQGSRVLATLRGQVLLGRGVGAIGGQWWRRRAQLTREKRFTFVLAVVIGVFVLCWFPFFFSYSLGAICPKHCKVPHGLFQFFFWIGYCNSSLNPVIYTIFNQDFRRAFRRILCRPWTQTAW
As to the kind of experiment: Equilibrium competition binding, [3H] rauwolscine, membranes of transfected Y-1 cells.

The target in test [3] is T3, α1B Human Adrenergic Receptor (Homo sapiens, UniProt P35368).
T3 construct: The entire coding region of α1B(1563 bp); expressed in transfected cells; host or cells: LM(tk-) cells
T3 sequence (P35368 1-520): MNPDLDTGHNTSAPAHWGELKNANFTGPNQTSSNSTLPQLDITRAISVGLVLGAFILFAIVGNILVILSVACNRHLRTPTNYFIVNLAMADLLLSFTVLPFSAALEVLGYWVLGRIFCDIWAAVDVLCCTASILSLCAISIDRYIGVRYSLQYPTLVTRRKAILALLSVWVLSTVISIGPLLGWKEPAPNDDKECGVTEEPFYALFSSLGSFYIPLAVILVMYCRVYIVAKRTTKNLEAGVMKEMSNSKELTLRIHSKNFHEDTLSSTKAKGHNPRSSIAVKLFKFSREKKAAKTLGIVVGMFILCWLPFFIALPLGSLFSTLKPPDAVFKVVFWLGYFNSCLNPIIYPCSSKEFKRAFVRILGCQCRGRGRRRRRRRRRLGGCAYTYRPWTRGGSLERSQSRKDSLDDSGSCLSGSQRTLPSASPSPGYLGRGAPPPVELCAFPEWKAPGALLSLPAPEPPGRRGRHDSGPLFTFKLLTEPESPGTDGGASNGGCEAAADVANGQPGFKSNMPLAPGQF
As to the kind of experiment: Equilibrium competition binding, [3H] prazosin, membranes of transfected LM(tk-) cells. The note with it: cloned human receptor; [3H] prazosin; read-out: pKi Alpha-1 B (converted).

Test [4] addresses T2, α2B Human Adrenergic Receptor. Type of test: cell-based.
Test [5] addresses T1, α2C Human Adrenergic Receptor. Type of test: cell-based. To be noted: for I.A Alpha-2 C: functional cAMP assay. Also noted: The entire coding region of α2C (1383 bp), including 2 bp of 5′ UT and 400 bp of 3′ UT; expressed in transfected cells; host or cells: LM(tk-) cells.
The mark [6] stands for this setting: inhibition of forskolin-stimulated cAMP, NA: Not Active, read-out: pEC50 Alpha-2 C (converted).

On to `Clc1cc(NC2=NCCN2)c(Br)c2[nH]cnc12` [Example 60, 4-Bromo-7-chloro-5-(2-imidazolin-2-ylamino)Benzimidazole], for which the Ki in test [1] is 16.2 nM; in test [2], 0.468 nM; in test [3], 316 nM. In addition, the EC50 in test [4] is 17.8 nM; in test [5], 0.398 nM. Besides, in test [4], the “I.A Alpha-2 B” value turned out to be 0.9. Besides, the “I.A Alpha-2 C” value in test [5] stood at 1.
For the compound `CC(C)c1nc2ccc(NC3=NCCN3)c(Br)c2[nH]1` [Example 44, 2-Isopropyl-4-bromo-5-(2-imidazolin-2-ylamino)Benzimidazole], the Ki in test [1] is 214 nM; in test [2], 46.8 nM; in test [3], 5890 nM. Moreover, the EC50 is 91.2 nM in test [4] and 182 nM in test [5] (setting [6]). In addition, in test [4], the “I.A Alpha-2 B” value is 0.80. The “I.A Alpha-2 C” value in test [5] was determined as 0.80.
Turning to `Brc1cc2nc[nH]c2c(Br)c1NC1=NCCN1` [Example 50, 4,6-Dibromo-5-(2-imidazolin-2-ylamino)Benzimidazole], the Ki is 24.5 nM in test [1], 2.34 nM in test [2] and 166 nM in test [3]. Moreover, the EC50 is 20.9 nM in test [4] and 70.8 nM in test [5]. Further, in test [4], the “I.A Alpha-2 B” value was found to be 0.90. Also, the “I.A Alpha-2 C” value in test [5] amounted to 1.00.
Turning to `c1nc2ccc(NC3=NCCN3)cc2[nH]1` [Example 1, 5-(2-Imidazolin-2-ylamino)Benzimidazole], the Ki was 70.8 nM in test [1], 74.1 nM in test [2] and 24500 nM in test [3]. Further, the EC50 is 44.7 nM in test [4] and 2.75 nM in test [5]. Besides, the “I.A Alpha-2 B” value in test [4] stood at 1.00. Moreover, in test [5], the “I.A Alpha-2 C” value stood at 1.00.
In the case of `Brc1c(NC2=NCCN2)ccc2nc(C(c3ccccc3)c3ccccc3)[nH]c12` [Example 48, 2-Diphenylmethyl-4-bromo-5-(2-imidazolin-2-ylamino)Benzimidazole], the Ki in test [1] was 245 nM; in test [2] (cloned human receptor, [3H] rauwolscine, read-out: pKi Alpha-2 B (converted)), 661 nM; in test [3], 49 nM. Moreover, in test [4] (functional cAMP assay), the “I.A Alpha-2 B” value is reported as 0.80. Further, the EC50 is 200 nM in test [4] (inhibition of forskolin-stimulated cAMP, NA: Not Active, read-out: pEC50 Alpha-2 B (converted)) and 1.35 nM in test [5] (setting [6]). For the same compound, the “I.A Alpha-2 C” value in test [5] was 0.60.
